In brackets after ≈: the same amount, converted by molar mass. Like-named read-outs stand apart in the source and are kept apart here. Where a SMILES comes first, the peptide text is derived from it. [ ]: non-standard residue; d: D form. dPhe(4-NO2) = N[C@H](Cc1ccc([N+](=O)[O-])cc1)C(=O)O; dPhe(3,4,5-F3) = N[C@H](Cc1cc(F)c(F)c(F)c1)C(=O)O; dPhe(F5) = N[C@H](Cc1c(F)c(F)c(F)c(F)c1F)C(=O)O; dTrp(1-Me) = Cn1cc(C[C@@H](N)C(=O)O)c2ccccc21; dPhe(3,4-F2) = N[C@H](Cc1ccc(F)c(F)c1)C(=O)O; dPhe(4-NH2) = Nc1ccc(C[C@@H](N)C(=O)O)cc1; dPhe(4-Me) = Cc1ccc(C[C@@H](N)C(=O)O)cc1; dPhe(2-Me) = Cc1ccccc1C[C@@H](N)C(=O)O; dPhe(4-F) = N[C@H](Cc1ccc(F)cc1)C(=O)O; dPhe(2-F) = N[C@H](Cc1ccccc1F)C(=O)O
Tests used:
hKOR [1] = target: T1, hKOR (Homo sapiens, UniProt P41145); test: Competition binding, [3H]U69,593, hKOR-CHO membranes; settings: for Ki: [3H]U69,593, human KOR, ± S.E.M., three independent experiments, read-out: KOR Ki
[2] = Metabolic stability in mouse liver microsomes; format: in vitro ADME; settings: 1 mg protein/mL; for half-life at 1 µM / microsomal CLint at 1 µM: mouse liver microsomes; for half-life at 1 µM / half-life: 1 µM compound, 37 °C, read-out: MLM t1/2; for microsomal CLint at 1 µM / microsomal CLint: read-out: MLM CLint; for half-life / microsomal CLint: microsomes
Experimental: (§1) Evaluation of the metabolic stability of the macrocyclic tetrapeptides by human and mouse liver microsomes was performed by Curia Global (Buffalo, NY, USA). […]

human MOR = target: T2, human MOR (Homo sapiens, UniProt P35372); test: biochemical; format: binding
T2 construct: expressed in transfected cells

[3] = Kinetic aqueous solubility; format: physicochemical; settings: 1% DMSO, pH 7.4
Source text: Table A1 Stability of [D-Trp]- and [D-Phe^4]CJ-15,208 and selected analogs in human (HLMs) and mouse liver microsomes (MLMs)^1. and kinetic aqueous solubility. | column: Solubility ^2 / (µM)

hKOR [4] = target: T1, hKOR; test: KOR cAMP assay using GloSensor-22F, antagonist mode (vs 10 nM U50,488); format: cell-based
Source text: A piggy-Bac (PB) transposon/transposase system was utilized to allow for the stable integration of the GloSensor-22F cAMP sensor (Promega, Madison, WI, USA) gene into genomic TTAA sites in Chinese hamster ovary cells already stably expressing the hKOR. The pFastBac hyperPB plasmid vector, which codes for the piggy-Bac transposon/transposase system, was utilized and was a kind gift from Dr. John Lueck. The multicistronic expression cassette developed for our experiments consisted of a CMV promoter driving constitutive expression of GloSensor-22F cAMP sensor, followed by an internal ribosome entry site (IRES) to drive the expression of codon-optimized HygR-P2A-mScarlet (hygromycin resistance gene and mScarlet separated by a 2A self-cleaving peptide element). To clone the expression cassette onto the pFastBac vector, the CMV promoter and GloSensor-22F were PCR amplified from pGloSensor-22F cAMP Plasmid (Promega), the IRES sequence was PCR amplified from pLVX-CMV-Galpha-oA ONE-GO (a gift from Dr. Mikel Garcia-Marcos, Addgene plasmid #189732), the HygR-P2A-mScarlet sequence was a kind gift from Dr. Lueck, and a bGH-poly(A) termination sequence was PCR amplified from pcDNA3.1(+). The pFastBac vector was linearized via overnight digestion with CspCI at 37 °C, which cuts between two inverted terminal repeat (ITR) sequences, and the corresponding backbone and all PCR fragments were gel purified and assembled via Gibson assembly using the Gibson Assembly MasterMix (New England Biolabs, Ipswich, MA, USA). The resulting pFastBac CMV GloSensor-22F IRES HygR-P2A-mScarlet bGH plasmid was transformed into NEB Stable Competent E. coli (New England Biolabs), miniprepped using the E.Z.N.A. Plasmid DNA Mini Kit (Omega Bio-Tek, Norcross, GA, USA), and sequence verified by nanopore whole-plasmid sequencing (Eurofins Genomics, Louisville, KY, USA).
3.0 × 10^6 hKOR-CHO cells were plated on a 6 cm dish and incubated for four h at 37 °C and 5% CO2 in DMEM (Corning Mediatech, Manassas, VA, USA) supplemented with 5% FBS (Corning Mediatech), 1% Penicillin/Streptomycin (Gibco, Waltham, MA, USA). The cells were then transfected with 2.0 μg pFastBac CMV GloSensor-22F IRES HygR-P2A-mScarlet bGH using PEI as a transfection reagent. The following day, transfected cells were reseeded onto a 10 cm dish at a density of 5.0 × 10^5 cells and 600 μg/mL hygromycin B (Gold Bio, St. Louis, MO, USA) was added to the culture media. Cells were cultured under selection antibiotics for seven days, and the selection process was monitored by the increase in abundance of mScarlet positive cells via epifluorescence microscopy.
Following the selection period, KOR-CHO-GLO cells were maintained at 37 °C and 5% CO2 in DMEM supplemented with 5% FBS, 1% Penicillin/Streptomycin and 300 μg/mL hygromycin B to reduce the likelihood of CMV promoter silencing. On the day of the assay, cells were detached with 0.05% trypsin (Gibco) and counted, then centrifuged (1000× g, 5 min) and resuspended in assay buffer (1xPBS, 0.1% glucose, 0.5 mM MgCl2) containing 4 mM D-luciferin substrate (Gold Bio) at approximately 2 million cells/mL. 25 μL of cells (~50,000/well) were seeded onto poly L-lysine-coated white 96-well flat bottom plates (Greiner Bio-One, Kremsmünster, Austria)) and returned to the incubator for 60 min. Following incubation, cells were allowed to equilibrate to room temperature protected from light (10–15 min). Initial luminescence readings (at least 10 cycles) were collected for each well using a FLUOstar Omega v.6.2 plate reader (BMG Labtech, Ortenberg, Germany), after which the plate was removed. Prepared 4x treatments of drug (25 μL) were added to appropriate wells followed by 50 μL of 20 μM forskolin (AmBeed, Buffalo Grove, IL, USA) before the plate was returned to the reader and luminescence measured until final plateau levels were achieved (20–30 min). Assays were performed in duplicate and repeated at least three times.

[5] = Metabolic stability in human liver microsomes; format: in vitro ADME; settings: 1 mg protein/mL; for half-life at 1 µM / microsomal CLint at 1 µM: human liver microsomes; for half-life at 1 µM / half-life: 1 µM compound, 37 °C, read-out: HLM t1/2; for microsomal CLint at 1 µM / microsomal CLint: read-out: HLM CLint; for half-life / microsomal CLint: microsomes
Experimental: as §1

hKOR [6] = target: T1, hKOR; test: KOR cAMP assay using GloSensor-22F, agonist mode (KOR-CHO-GLO cells); format: cell-based; settings: for Emax at 10 µM: read-out: KOR Efficacy (%)
C57BL/6J mice = test: 55 °C warm-water tail-withdrawal assay, antinociception; format: in vivo, mouse
Experimental: For intracerebroventricular administration, peptides were dissolved in DMSO at a concentration of 20 mM (100 nmol/5 µL), then diluted to test doses in a final vehicle solution of 50%DMSO/50% saline (0.9%). For all other testing (for oral administration), peptides were made fresh each day for testing in a final vehicle solution of 10% DMSO/10% Solutol/80% saline (0.9%).
Intracerebroventricular injections were made directly into the lateral ventricle according to the modified steps detailed previously. The volume of all i.c.v. injections was 5 μL, using a 10 μL Hamilton microliter syringe. The mouse was lightly anesthetized with isoflurane, an incision was made in the scalp, and the injection was made 2 mm lateral and 2 mm caudal to bregma at a depth of 3 mm.
The dose response of analogs 3, 6, 9 and 14 were also assessed following administration of one of up to four additional oral (p.o.) doses (1–30 mg/kg).

[7] = [3H]DAMGO, human MOR, ± S.E.M., three independent experiments, read-out: MOR Ki
[8] = 30 mg/kg, p.o., 30 min after administration

Compound	Ki (hKOR [1]) [nM]	half-life at 1 µM [2] [min]	microsomal CLint at 1 µM [2] [µL/min/mg]	Ki (human MOR; [7]) [nM]	solubility kinetic [3] [µM]	IC50 (hKOR [4]) [nM]	Selectivity (MOR Ki/KOR Ki) (hKOR [1]; MOR Ki/KOR Ki)	half-life at 1 µM [5] [min]	microsomal CLint at 1 µM [5] [µL/min/mg]	Emax at 10 µM (hKOR [6]) [%]	other results
O=C1N[C@H](Cc2c(F)c(F)c(F)c(F)c2F)C(=O)N[C@@H](Cc2ccccc2)C(=O)N2CCC[C@@H]2C(=O)N[C@H]1Cc1ccccc1 [Analog 12] (cyclo(F[dP]F[dPhe(F5)]))	310 ± 9.9										fold decrease in KOR affinity (fluorine substitution on D-Phe^4) (hKOR [1]): 13 fold
Cn1cc(C[C@H]2NC(=O)[C@H](Cc3ccccc3)NC(=O)[C@H]3CCCN3C(=O)[C@H](Cc3ccccc3)NC2=O)c2ccccc21 [Analog 2, [D-Trp(Me)]CJ-15,208] (cyclo(F[dP]F[dTrp(1-Me)]))	16 ± 0.8	3.3	211	36 ± 2.6	12 (≈ 7.1 µg/mL)	220 ± 32	2	2.4	286	14 ± 7.1	
O=C1N[C@H](Cc2ccccc2F)C(=O)N[C@@H](Cc2ccccc2)C(=O)N2CCC[C@@H]2C(=O)N[C@H]1Cc1ccccc1 [Analog 5] (cyclo(F[dP]F[dPhe(2-F)]))	39 ± 0.57	1.6	430	350 ± 22	15 (≈ 8.35 µg/mL)		9	1.9	373		
COc1ccc(C[C@H]2NC(=O)[C@H](Cc3ccccc3)NC(=O)[C@H]3CCCN3C(=O)[C@H](Cc3ccccc3)NC2=O)cc1 [Analog 18, [D-Tyr(Me)^4]CJ-15,208] (cyclo(F[dP]F[dY](Me)))	150 ± 16										antinociception vs vehicle (C57BL/6J mice; [8]): significant antinociception
O=C1N[C@H](Cc2cc(F)c(F)c(F)c2)C(=O)N[C@@H](Cc2ccccc2)C(=O)N2CCC[C@@H]2C(=O)N[C@H]1Cc1ccccc1 [Analog 11] (cyclo(F[dP]F[dPhe(3,4,5-F3)]))	12 ± 0.44	2.9	238	46 ± 5.4	4.8 (≈ 2.84 µg/mL)	160 ± 19	4	1.6	447	2.2 ± 6.2	
Nc1ccc(C[C@H]2NC(=O)[C@H](Cc3ccccc3)NC(=O)[C@H]3CCCN3C(=O)[C@H](Cc3ccccc3)NC2=O)cc1 [Analog 17] (cyclo(F[dP]F[dPhe(4-NH2)]))											inhibition at 10 µM (hKOR [1]; at 10 μM): 65%
Cc1cc(C)cc([C@@H]2CCCN2Cc2ccc(Oc3ccc(C(N)=O)cc3F)cc2)c1 [Aticaprant, reference compound]	0.77 ± 0.1										Ki (human MOR): 15 ± 2 nM; IC50 (hKOR [4]; antagonism of an IC80 concentration (10 nM) of U50,488 in the cAMP assay, ± SEM, read-out: KOR Antag. IC50): 8 ± 1.7 nM; Selectivity (MOR Ki/KOR Ki) (hKOR [1]): 19; activity type in the cAMP assay (hKOR [6]): inverse agonist; KOR Efficacy (%) (hKOR [6]; mean % inhibition ± SEM at 10 µM relative to the KOR agonist U50,488, forskolin-stimulated cAMP): −48 ± 3.0 ^8%
O=C1N[C@H](Cc2ccc(F)c(F)c2)C(=O)N[C@@H](Cc2ccccc2)C(=O)N2CCC[C@@H]2C(=O)N[C@H]1Cc1ccccc1 [Analog 8] (cyclo(F[dP]F[dPhe(3,4-F2)]))	6.6 ± 0.73	1.1	629	57 ± 5.6	9.5 (≈ 5.46 µg/mL)	170 ± 28	9	2.2	309	13 ± 2.7	antinociception vs vehicle (C57BL/6J mice; [8]): significant antinociception
CN1CC[C@]23c4c5ccc(O)c4O[C@H]2[C@@H](O)C=C[C@H]3[C@H]1C5 [morphine, reference compound]											antinociception vs vehicle (C57BL/6J mice; 30 nmol, i.c.v., positive control): significant antinociception; antinociception vs vehicle (C57BL/6J mice; [8]): significant antinociception
O=C1N[C@H](Cc2cc(F)c(F)cc2F)C(=O)N[C@@H](Cc2ccccc2)C(=O)N2CCC[C@@H]2C(=O)N[C@H]1Cc1ccccc1 [Analog 10]	27 ± 3.3	1	699	270 ± 30	7.4 (≈ 4.39 µg/mL)	290 ± 40	10	1.5	462	19 ± 6.8	
Cc1ccc(C[C@H]2NC(=O)[C@H](Cc3ccccc3)NC(=O)[C@H]3CCCN3C(=O)[C@H](Cc3ccccc3)NC2=O)cc1 [Analog 15] (cyclo(F[dP]F[dPhe(4-Me)]))					24 (≈ 13.3 µg/mL)					18 ± 1.4	half-life [2]: 2.9 min; microsomal CLint [2]: 236 µL/min/mg; half-life [5]: 5.4 min; microsomal CLint [5]: 129 µL/min/mg
Cc1ccccc1C[C@H]1NC(=O)[C@H](Cc2ccccc2)NC(=O)[C@H]2CCCN2C(=O)[C@H](Cc2ccccc2)NC1=O [Analog 13] (cyclo(F[dP]F[dPhe(2-Me)]))	110 ± 13			280 ± 8			2.5				
O=C1N[C@H](Cc2ccc([N+](=O)[O-])cc2)C(=O)N[C@@H](Cc2ccccc2)C(=O)N2CCC[C@@H]2C(=O)N[C@H]1Cc1ccccc1 [Analog 16] (cyclo(F[dP]F[dPhe(4-NO2)]))	7 ± 0.99	4.4	159	61 ± 2.7	6.7 (≈ 3.91 µg/mL)	210 ± 13	9	6.7	103	7.3 ± 7.3	
O=C1N[C@H](Cc2ccc(F)cc2)C(=O)N[C@@H](Cc2ccccc2)C(=O)N2CCC[C@@H]2C(=O)N[C@H]1Cc1ccccc1 [Analog 7] (cyclo(F[dP]F[dPhe(4-F)]))					25 (≈ 13.9 µg/mL)					5.5 ± 7.9	half-life [2]: 3.4 min; microsomal CLint [2]: 202 µL/min/mg; half-life [5]: 2.3 min; microsomal CLint [5]: 296 µL/min/mg

— PMC12526156, “Optimization of the Macrocyclic Tetrapeptide [D-Trp]CJ-15,208 to Prevent Stress-Induced Relapse of Cocaine-Seeking Behavior” (Molecules, 2025)
